≈ marks a conversion by molar mass, not a printed value.
System: Klebsiella pneumoniae
Assay: Antibacterial activity against Klebsiella pneumoniae
Format: functional
Conditions: not given

Compound | MIC
CCn1cc(C(=O)O)c(=O)c2cc(F)c(N3CCN(CC(=O)OCC4C=CC(n5cc(C)c(=O)[nH]c5=O)O4)CC3)cc21 (stereo not drawn) | 1.22 µg/mL (≈ 2.09 µM)

System: Pseudomonas aeruginosa
Assay: Antibacterial activity against Pseudomonas aeruginosa
Format: functional
Conditions: not given

Compound | MIC
CCn1cc(C(=O)O)c(=O)c2cc(F)c(N3CCN(CC(=O)OCC4C=CC(n5cc(C)c(=O)[nH]c5=O)O4)CC3)cc21 (stereo not drawn) | 1.22 µg/mL (≈ 2.09 µM)

System: Proteus vulgaris
Assay: Antibacterial activity against Proteus vulgaris
Format: functional
Conditions: not given

Compound | MIC
CCn1cc(C(=O)O)c(=O)c2cc(F)c(N3CCN(CC(=O)OCC4C=CC(n5cc(C)c(=O)[nH]c5=O)O4)CC3)cc21 (stereo not drawn) | 9.76 µg/mL (≈ 16.7 µM)

System: Shigella boydii
Assay: Antibacterial activity against Shigella boydii
Format: functional
Conditions: not given

Compound | MIC
CCn1cc(C(=O)O)c(=O)c2cc(F)c(N3CCN(CC(=O)OCC4C=CC(n5cc(C)c(=O)[nH]c5=O)O4)CC3)cc21 (stereo not drawn) | 0.61 µg/mL (≈ 1.05 µM)

System: CCRF-CEM
Assay: Cytotoxic concentration of compound required to reduce the viability of mock infected CEM cells by 50%
Format: functional
Conditions: Homo sapiens

Compound | CC50
CCn1cc(C(=O)O)c(=O)c2cc(F)c(N3CCN(CC(=O)OCC4C=CC(n5cc(C)c(=O)[nH]c5=O)O4)CC3)cc21 (stereo not drawn) | 210 µM

System: Shigella sonnei
Assay: Antibacterial activity against Shigella sonnei
Format: functional
Conditions: not given

Compound | MIC
CCn1cc(C(=O)O)c(=O)c2cc(F)c(N3CCN(CC(=O)OCC4C=CC(n5cc(C)c(=O)[nH]c5=O)O4)CC3)cc21 (stereo not drawn) | 9.76 µg/mL (≈ 16.7 µM)

System: Staphylococcus aureus
Assay: Antibacterial activity against Staphylococcus aureus
Format: functional
Conditions: not given

Compound | MIC
CCn1cc(C(=O)O)c(=O)c2cc(F)c(N3CCN(CC(=O)OCC4C=CC(n5cc(C)c(=O)[nH]c5=O)O4)CC3)cc21 (stereo not drawn) | 9.76 µg/mL (≈ 16.7 µM)

System: Vibrio cholerae
Assay: Antibacterial activity against Vibrio cholerae 01
Format: functional
Conditions: not given

Compound | MIC
CCn1cc(C(=O)O)c(=O)c2cc(F)c(N3CCN(CC(=O)OCC4C=CC(n5cc(C)c(=O)[nH]c5=O)O4)CC3)cc21 (stereo not drawn) | 0.61 µg/mL (≈ 1.05 µM)

System: Citrobacter freundii
Assay: Antibacterial activity against Citrobacter ferundii
Format: functional
Conditions: not given

Compound | MIC
CCn1cc(C(=O)O)c(=O)c2cc(F)c(N3CCN(CC(=O)OCC4C=CC(n5cc(C)c(=O)[nH]c5=O)O4)CC3)cc21 (stereo not drawn) | 2.44 µg/mL (≈ 4.18 µM)

System: Vibrio mimicus
Assay: Antibacterial activity against Vibrio mimicus
Format: functional
Conditions: not given

Compound | MIC
CCn1cc(C(=O)O)c(=O)c2cc(F)c(N3CCN(CC(=O)OCC4C=CC(n5cc(C)c(=O)[nH]c5=O)O4)CC3)cc21 (stereo not drawn) | 0.61 µg/mL (≈ 1.05 µM)

System: Salmonella paratyphi
Assay: Antibacterial activity against Salmonella paratyphi A
Format: functional, Salmonella enterica subsp. enterica serovar Paratyphi A
Conditions: Salmonella enterica

Compound | MIC
CCn1cc(C(=O)O)c(=O)c2cc(F)c(N3CCN(CC(=O)OCC4C=CC(n5cc(C)c(=O)[nH]c5=O)O4)CC3)cc21 (stereo not drawn) | 1.22 µg/mL (≈ 2.09 µM)

System: not listed separately
Assay: Selectivity index expressed as the ratio of CC50 to EC50
Format: functional
Conditions: not given

Compound | Selectivity index
CCn1cc(C(=O)O)c(=O)c2cc(F)c(N3CCN(CC(=O)OCC4C=CC(n5cc(C)c(=O)[nH]c5=O)O4)CC3)cc21 (stereo not drawn) | 2.1

System: Salmonella enteritidis
Assay: Antibacterial activity against Salmonella enteritidis
Format: functional, Salmonella enterica subsp. enterica serovar Enteritidis
Conditions: Salmonella enterica

Compound | MIC
CCn1cc(C(=O)O)c(=O)c2cc(F)c(N3CCN(CC(=O)OCC4C=CC(n5cc(C)c(=O)[nH]c5=O)O4)CC3)cc21 (stereo not drawn) | 9.76 µg/mL (≈ 16.7 µM)

System: Vibrio fluvialis
Assay: Antibacterial activity against Vibrio fluvialis
Format: functional
Conditions: not given

Compound | MIC
CCn1cc(C(=O)O)c(=O)c2cc(F)c(N3CCN(CC(=O)OCC4C=CC(n5cc(C)c(=O)[nH]c5=O)O4)CC3)cc21 (stereo not drawn) | 9.76 µg/mL (≈ 16.7 µM)

System: Vibrio parahaemolyticus
Assay: Antibacterial activity against Vibrio parahaemolyticus
Format: functional
Conditions: not given

Compound | MIC
CCn1cc(C(=O)O)c(=O)c2cc(F)c(N3CCN(CC(=O)OCC4C=CC(n5cc(C)c(=O)[nH]c5=O)O4)CC3)cc21 (stereo not drawn) | 1.22 µg/mL (≈ 2.09 µM)

System: Priestia megaterium
Assay: Antibacterial activity against Bacillus megatherium
Format: functional
Conditions: not given

Compound | MIC
CCn1cc(C(=O)O)c(=O)c2cc(F)c(N3CCN(CC(=O)OCC4C=CC(n5cc(C)c(=O)[nH]c5=O)O4)CC3)cc21 (stereo not drawn) | 0.3 µg/mL (≈ 0.514 µM)

System: Morganella morganii
Assay: Antibacterial activity against Morganella morganii
Format: functional
Conditions: not given

Compound | MIC
CCn1cc(C(=O)O)c(=O)c2cc(F)c(N3CCN(CC(=O)OCC4C=CC(n5cc(C)c(=O)[nH]c5=O)O4)CC3)cc21 (stereo not drawn) | 9.76 µg/mL (≈ 16.7 µM)

System: Vibrio cholerae
Assay: Antibacterial activity against Vibrio cholerae 0139
Format: functional
Conditions: not given

Compound | MIC
CCn1cc(C(=O)O)c(=O)c2cc(F)c(N3CCN(CC(=O)OCC4C=CC(n5cc(C)c(=O)[nH]c5=O)O4)CC3)cc21 (stereo not drawn) | 0.61 µg/mL (≈ 1.05 µM)

System: Escherichia coli
Assay: Antibacterial activity against Escherichia coli NCTC 10418
Format: functional
Conditions: not given

Compound | MIC
CCn1cc(C(=O)O)c(=O)c2cc(F)c(N3CCN(CC(=O)OCC4C=CC(n5cc(C)c(=O)[nH]c5=O)O4)CC3)cc21 (stereo not drawn) | 1.22 µg/mL (≈ 2.09 µM)

System: Klebsiella pneumoniae
Assay: Antibacterial activity against Klebsiella ozaenae
Format: functional
Conditions: subsp. ozaenae

Compound | MIC
CCn1cc(C(=O)O)c(=O)c2cc(F)c(N3CCN(CC(=O)OCC4C=CC(n5cc(C)c(=O)[nH]c5=O)O4)CC3)cc21 (stereo not drawn) | 1.22 µg/mL (≈ 2.09 µM)

System: Salmonella typhimurium
Assay: Antibacterial activity against Salmonella Typhimurium
Format: functional, Salmonella enterica subsp. enterica serovar Typhimurium
Conditions: Salmonella enterica

Compound | MIC
CCn1cc(C(=O)O)c(=O)c2cc(F)c(N3CCN(CC(=O)OCC4C=CC(n5cc(C)c(=O)[nH]c5=O)O4)CC3)cc21 (stereo not drawn) | 9.76 µg/mL (≈ 16.7 µM)

System: Enterobacter
Assay: Antibacterial activity against Enterobacter
Format: functional
Conditions: not given

Compound | MIC
CCn1cc(C(=O)O)c(=O)c2cc(F)c(N3CCN(CC(=O)OCC4C=CC(n5cc(C)c(=O)[nH]c5=O)O4)CC3)cc21 (stereo not drawn) | 0.3 µg/mL (≈ 0.514 µM)

System: Edwardsiella tarda
Assay: Antibacterial activity against Edwardsiella tarda
Format: functional
Conditions: not given

Compound | MIC
CCn1cc(C(=O)O)c(=O)c2cc(F)c(N3CCN(CC(=O)OCC4C=CC(n5cc(C)c(=O)[nH]c5=O)O4)CC3)cc21 (stereo not drawn) | 9.76 µg/mL (≈ 16.7 µM)

System: CCRF-CEM
Assay: Effective concentration of compound achieving 50% protection in CEM cell lines against the cytopathic effect of HIV-1
Format: functional, cell-based
Conditions: Homo sapiens

Compound | EC50
CCn1cc(C(=O)O)c(=O)c2cc(F)c(N3CCN(CC(=O)OCC4C=CC(n5cc(C)c(=O)[nH]c5=O)O4)CC3)cc21 (stereo not drawn) | 100 µM

System: not listed separately
Assay: In vitro hydrolysis in human plasma
Format: ADME, cell-free
Conditions: not given

Compound | half-life
CCn1cc(C(=O)O)c(=O)c2cc(F)c(N3CCN(CC(=O)OCC4C=CC(n5cc(C)c(=O)[nH]c5=O)O4)CC3)cc21 (stereo not drawn) | > 4 h

System: Plesiomonas shigelloides
Assay: Antibacterial activity against Plesiomonas shigelloides
Format: functional
Conditions: not given

Compound | MIC
CCn1cc(C(=O)O)c(=O)c2cc(F)c(N3CCN(CC(=O)OCC4C=CC(n5cc(C)c(=O)[nH]c5=O)O4)CC3)cc21 (stereo not drawn) | 9.76 µg/mL (≈ 16.7 µM)

System: Mycobacterium tuberculosis
Assay: Antimycobacterial activity against Mycobacterium tuberculosis strain H37Rv
Format: functional
Design: concentration or dose not given beside the values
Conditions: not given

Compound | Inhibition
CCn1cc(C(=O)O)c(=O)c2cc(F)c(N3CCN(CC(=O)OCC4C=CC(n5cc(C)c(=O)[nH]c5=O)O4)CC3)cc21 (stereo not drawn) | 98%

System: Proteus mirabilis
Assay: Antibacterial activity against Proteus mirabilis
Format: functional
Conditions: not given

Compound | MIC
CCn1cc(C(=O)O)c(=O)c2cc(F)c(N3CCN(CC(=O)OCC4C=CC(n5cc(C)c(=O)[nH]c5=O)O4)CC3)cc21 (stereo not drawn) | 1.22 µg/mL (≈ 2.09 µM)
